Our source for the Ki values is the Kinase Knowledgebase extract (Sharma et al. 2016).

Some results are limits rather than exact numbers.

For this assay, the target named is PIK3CG (human) (UniProt P48736). In words: Inhibition of PIK3CG Kinase Activity.
Chain of PIK3CG (human) (P48736 whole entry, looked up): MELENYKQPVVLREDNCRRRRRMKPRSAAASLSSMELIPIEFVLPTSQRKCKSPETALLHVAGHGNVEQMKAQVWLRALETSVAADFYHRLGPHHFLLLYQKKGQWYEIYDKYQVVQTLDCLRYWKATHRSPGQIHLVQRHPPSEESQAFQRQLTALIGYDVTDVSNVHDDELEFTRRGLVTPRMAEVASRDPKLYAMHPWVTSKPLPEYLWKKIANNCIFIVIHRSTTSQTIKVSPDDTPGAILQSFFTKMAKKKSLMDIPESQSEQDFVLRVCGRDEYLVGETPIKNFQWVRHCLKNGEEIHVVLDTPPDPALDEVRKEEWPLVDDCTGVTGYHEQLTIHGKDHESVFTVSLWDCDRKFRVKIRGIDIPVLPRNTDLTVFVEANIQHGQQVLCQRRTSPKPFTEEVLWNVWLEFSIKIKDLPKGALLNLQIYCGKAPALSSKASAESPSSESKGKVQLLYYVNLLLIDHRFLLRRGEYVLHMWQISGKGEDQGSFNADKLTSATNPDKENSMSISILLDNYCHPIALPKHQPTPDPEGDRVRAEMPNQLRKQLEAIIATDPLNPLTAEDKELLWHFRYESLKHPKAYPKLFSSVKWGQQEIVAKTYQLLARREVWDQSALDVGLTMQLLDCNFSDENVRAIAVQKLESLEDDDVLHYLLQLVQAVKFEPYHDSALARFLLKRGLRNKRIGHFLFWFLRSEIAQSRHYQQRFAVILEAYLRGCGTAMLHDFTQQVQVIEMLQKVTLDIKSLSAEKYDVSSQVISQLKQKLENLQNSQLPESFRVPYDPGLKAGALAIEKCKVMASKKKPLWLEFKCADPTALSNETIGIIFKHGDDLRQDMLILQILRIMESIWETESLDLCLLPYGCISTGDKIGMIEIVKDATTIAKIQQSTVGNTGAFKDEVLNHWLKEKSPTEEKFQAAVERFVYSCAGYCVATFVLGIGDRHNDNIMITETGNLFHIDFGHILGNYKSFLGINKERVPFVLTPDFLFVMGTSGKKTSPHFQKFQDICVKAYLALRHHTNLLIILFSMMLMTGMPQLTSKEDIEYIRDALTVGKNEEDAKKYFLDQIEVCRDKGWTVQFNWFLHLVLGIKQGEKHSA
`COCCOCCOc1ncc(-c2cc(C)c3c(c2)CN(c2cnn(CC#N)c2)C3=O)cc1OC` came in with a Ki of less than 100 nM.

In turn, `COc1cc(-c2ccc3c(n2)CN(c2cnn(C(C)C#N)c2)C3=O)cnc1OC` (stereo not given) displayed a Ki of less than 100 nM.

`COc1cc(-c2cc(C)c3c(n2)C(C)N(c2cnn(CC(F)F)c2)C3=O)cnc1OC` (stereo not given) displayed a Ki of less than 100 nM.

`COc1cc(-c2cc(C)c3c(n2)C(OCC(F)(F)F)N(c2cnn(CC(F)(F)F)c2)C3=O)cnc1OC` (stereo not given) registered a Ki of less than 100 nM.

`COc1cncc(-c2cc(C)c3c(n2)C(C)N(c2csc(C)n2)C3=O)c1` (stereo not given) showed a Ki of less than 100 nM.

On to `COc1cc(-c2ccc3c(c2)CN(c2cnn(CC(C)C)c2)C3=O)cnc1OC`, for which the Ki was 100 to 490 nM.

For the molecule `COc1cc(-c2ccc3c(n2)CN(c2ccc(N(C)CC4OCCO4)nc2)C3=O)cnc1OC`, the Ki is 100 to 490 nM.

In the case of `COc1cc(-c2ccc3c(c2)CN(c2cscn2)C3=O)cnc1OC`, the Ki lay in the range of 100 to 490 nM.

In turn, `COc1cncc(-c2cc(C)c3c(n2)C(C)(O)N(c2cnn(CC(F)(F)F)c2)C3=O)c1` (stereo not given) yielded a Ki of less than 100 nM.

Regarding `CCOc1ccnc(N2Cc3nc(-c4cnc(OC)c(OC)c4)cc(C)c3C2=O)c1`, the Ki was less than 100 nM.

In the case of `Cc1cc(-c2cnc(C)c(O)c2)nc2c1C(=O)N(c1cnn(CC(F)(F)F)c1)C2(C)C`, the Ki was less than 100 nM.

`COc1cc(-c2ccc3c(c2)CN(c2cnn(CCO)c2)C3=O)cnc1OC`: the Ki was in the range of 100 to 490 nM.

`COCCCOc1cc(-c2cc(C)c3c(n2)CN(c2cnn(CC(F)(F)F)c2)C3=O)cnc1OC` showed a Ki of less than 100 nM.

The molecule `COc1ncc(-c2ccc3c(n2)[C@H](C)N(c2cnn(CC(F)(F)F)c2)C3=O)cc1O` gave a Ki of less than 100 nM.

Consider `CCC(O)c1ncc(N2Cc3nc(-c4cnc(OC)c(OC)c4)cc(C)c3C2=O)cn1` (stereo not given), for which the Ki was less than 100 nM.

Molecule `CCn1ccc(N2Cc3nc(-c4cncc(OC)c4)cc(C)c3C2=O)n1` had a Ki of less than 100 nM.

In the case of `COc1cc(-c2ccc3c(n2)CN(c2cccc(C(C)(C)C#N)n2)C3=O)cnc1OC`, the Ki was less than 100 nM.

The molecule `Cc1cc(-c2cncc(C(=O)NC(C)(C)C)c2)nc2c1C(=O)N(c1cnn(CC(F)(F)F)c1)C2(C)C` showed a Ki of less than 100 nM.

For the molecule `COc1cc(-c2ccc3c(n2)CN(c2cc(C)n(CC(F)(F)F)n2)C3=O)cnc1OC`, the Ki was less than 100 nM.

As to `CC[C@@H]1c2nc(-c3cnc(OC)c(OC)c3)ccc2C(=O)N1c1cnn(CC(F)(F)F)c1`, the Ki is less than 100 nM.

In the case of `Cc1cc(-c2cncc(OC(F)F)c2)nc2c1C(=O)N(c1cnn(CC(F)(F)F)c1)C2(C)O` (stereo not given), the Ki is less than 100 nM.

In turn, `CON=Cc1cncc(-c2cc(C)c3c(n2)C(C)(C)N(c2cnn(CC(F)(F)F)c2)C3=O)c1` showed a Ki of less than 100 nM.

`CCn1ccc(N2C(=O)c3c(C)cc(-c4cncc(OC(F)F)c4)nc3[C@@H]2C)n1` displayed a Ki of less than 100 nM.

`COc1cncc(-c2cc(C)c3c(n2)C2(C[C@@H](O)[C@@H](O)C2)N(c2cnn(CC(F)(F)F)c2)C3=O)c1` (stereo not given in full) gave a Ki of less than 100 nM.

In the case of `COc1cncc(-c2cc(C)c3c(n2)C(C)N(c2ccn(C)n2)C3=O)c1` (stereo not given), the Ki is less than 100 nM.

Consider `CCn1cc(N2Cc3nc(-c4cnc(OC)c(OC(C)C)c4)cc(C)c3C2=O)cn1`, for which the Ki is less than 100 nM.

The molecule `CCn1cc(N2Cc3nc(-c4cnc(OC)c(OC)c4)cc(C)c3C2=O)cn1` had a Ki of less than 100 nM.

`COc1ccc(-c2cc(C)c3c(n2)CN(c2cnn(CC(F)(F)F)c2)C3=O)nc1OC` yielded a Ki of less than 100 nM.

Molecule `COc1cc(-c2cc(C)c3c(n2)CN(c2cnn(CC(F)(F)F)c2)C3=O)ccc1C` had a Ki of less than 100 nM.

`COc1cc(-c2ccc3c(n2)CN(c2cnn(C)n2)C3=O)cnc1OC` returned a Ki of less than 100 nM.

For the molecule `COc1ncc(-c2cc(C)c3c(n2)CN(c2ccn(C4COC4)n2)C3=O)cc1OCC1CC1`, the inhibition constant (Ki) is less than 100 nM.

In turn, `COc1cc(-c2cc(C)c3c(n2)[C@@]2(CCCO2)N(c2cnn(CC(F)(F)F)c2)C3=O)cnc1OC(C)C` yielded a Ki of less than 100 nM.

Molecule `COCCOc1ncc(-c2cc(C)c3c(n2)C(C)N(c2ccn(C)n2)C3=O)cc1OC` (stereo not given) showed a Ki of less than 100 nM.

As to `CC1c2nc(-c3cccc(OC(F)(F)F)c3)ccc2C(=O)N1c1cnn(CC(F)(F)F)c1` (stereo not given), the Ki was less than 100 nM.

The molecule `COc1cc(-c2ccc3c(c2)CN(c2cncc(C#N)c2)C3=O)cnc1OC` returned a Ki of 100 to 490 nM.

`CCn1cc(N2Cc3nc(-c4cnc(OCCOC)c(OC)c4)cc(C)c3C2=O)cn1` gave a Ki of less than 100 nM.

Consider `CCc1cc(N2Cc3nc(-c4cnc(OC)c(OC)c4)ccc3C2=O)n[nH]1`, for which the Ki was in the range of 100 to 490 nM.

With `CCOC(=O)C(F)(F)c1ccc(N2Cc3nc(-c4cnc(OC)c(OC)c4)ccc3C2=O)cn1`, the Ki lay within 100 to 490 nM.

`COc1ncc(-c2cc(C)c3c(c2)C(C)N(c2cnn(CC(F)(F)F)c2)C3=O)nc1OC` (stereo not given): the Ki is less than 100 nM.

`COc1cc(-c2ccc3c(n2)CN(c2cnn(CCC(=O)O)c2)C3=O)cnc1OC` registered a Ki of less than 100 nM.

The molecule `COc1cc(-c2cc(C)c3c(n2)CN(c2nccs2)C3=O)cnc1OC` registered a Ki of less than 100 nM.

As to `CCCOc1cc(-c2cc(C)c3c(n2)CN(c2ccn(C4COC4)n2)C3=O)cnc1OC`, the Ki is less than 100 nM.

Regarding `COc1cc(-c2ccc3c(n2)C(C)N(c2cnn(CC#N)c2)C3=O)cnc1OC` (stereo not given), the Ki was less than 100 nM.

`CCC1(OC)c2nc(-c3cnc(OC)c(OC)c3)cc(C)c2C(=O)N1c1cnn(CC(F)(F)F)c1` (stereo not given): the Ki is less than 100 nM.

In turn, `COc1cc(-c2ccc3c(n2)C2(CCOCC2)N(c2cnn(CC(F)(F)F)c2)C3=O)cnc1OC` returned a Ki of less than 100 nM.

Regarding `CCn1ccc(N2C(=O)c3c(C)cc(-c4cncc(OC(F)F)c4)nc3C2C)n1` (stereo not given), the inhibition constant Ki was less than 100 nM.

In turn, `COc1cncc(-c2cc(C)c3c(n2)C2(CC2)N(c2cnn(CC(F)(F)F)c2)C3=O)c1` came in with a Ki of less than 100 nM.

Turning to `Cc1cc(-c2cnc(C)c(C(=O)NC(C)C)c2)nc2c1C(=O)N(c1cnn(CC(F)(F)F)c1)C2(C)C`, the Ki is less than 100 nM.

For the molecule `COc1ncc(-c2cc(C)c3c(n2)CN(c2cn[nH]c2)C3=O)cc1OCC1CC1`, the Ki was less than 100 nM.

Turning to `COc1cc(-c2cc(C)c3c(n2)CN(c2ccnc(C4(C#N)CC4)c2)C3=O)cnc1OC`, the Ki is less than 100 nM.

With `COc1cc(-c2cc(C)c3c(n2)CN(c2cnn(CC(F)(F)F)c2)C3=O)ccc1F`, the Ki was less than 100 nM.

With `CCNC(=O)c1cc(-c2cc(C)c3c(n2)C(C)(C)N(c2cnn(CC(F)(F)F)c2)C3=O)cnc1C`, the Ki was less than 100 nM.

With `CCn1cc(N2Cc3nc(-c4cnc(OC)c(OC)c4)cc(C)c3C2=O)nn1`, the inhibitory constant (Ki) was less than 100 nM.

With `COc1cc(-c2cc(C)c3c(n2)C(O)N(c2cnn(CC(F)(F)F)c2)C3=O)cnc1OC` (stereo not given), the Ki is less than 100 nM.

In turn, `Cc1cc(-c2cncc(OC(F)F)c2)nc2c1C(=O)N(c1cnn(CC(F)(F)F)c1)[C@H]2C` had a Ki of less than 100 nM.

In turn, `COc1cc(-c2cc(C)c3c(n2)CN(c2cnc(NC(C)=O)c(C)c2)C3=O)cnc1OC` registered a Ki of less than 100 nM.

Consider `COc1cc(-c2cc(C)c3c(n2)CN(c2ccc(OCCCC(F)(F)F)nc2)C3=O)cnc1OC`, for which the Ki is less than 100 nM.

The molecule `Cc1cc(-c2cnc(F)c(O)c2)nc2c1C(=O)N(c1cnn(CC(F)(F)F)c1)C2(C)C` registered a Ki of less than 100 nM.

Turning to `COc1cc(-c2ccc3c(n2)CN(c2cnn([C@H](C)CO)c2)C3=O)cnc1OC`, the Ki was less than 100 nM.

In the case of `COc1cc(-c2cc(C)c3c(c2)C(C)N(c2cnn(CC(F)(F)F)c2)C3=O)cnc1OC` (stereo not given), the Ki was less than 100 nM.

Consider `CCn1nc(N2Cc3cc(-c4cnc(OC)c(OC)c4)ccc3C2=O)cc1C`, for which the Ki fell in the range of 100 to 490 nM.

In turn, `COc1ncc(-c2cc(C)c3c(n2)CN(c2cnn(CC(F)(F)F)c2)C3=O)cc1OC(C)C` displayed a Ki of less than 100 nM.

In turn, `N#CCn1cc(N2Cc3cc(-c4cnc5ccccc5c4)ccc3C2=O)cn1` had a Ki of 100 to 490 nM.

`COc1ccc(-c2cc(C)c3c(c2)CN(c2cnn(CC(F)(F)F)c2)C3=O)nc1OC` showed a Ki of less than 100 nM.

Take `COc1cncc(-c2cc(C)c3c(n2)C2(CN(C(=O)OC(C)(C)C)C2)N(c2cnn(CC(F)(F)F)c2)C3=O)c1`: the Ki was less than 100 nM.

In turn, `Cc1cc(-c2cncc(OCC(F)(F)F)c2)nc2c1C(=O)N(c1cnn(CC(F)(F)F)c1)C2` registered an inhibition constant Ki of less than 100 nM.

`COc1cc(-c2cc(C)c3c(n2)CN(c2ccc(C)s2)C3=O)cnc1OC` registered a Ki of less than 100 nM.

Molecule `CCn1cc(N2C(=O)c3ccc(-c4cnc(OC)c(OC)c4)nc3[C@H]2C)cn1` returned a Ki of less than 100 nM.

The molecule `COc1cc(-c2ccc3c(n2)CN(c2cnn(Cc4csc(C)n4)c2)C3=O)cnc1OC` came in with a Ki of less than 100 nM.

`COc1cc(-c2ccc3c(c2)CN(c2cnn(CC4COc5ccccc5O4)c2)C3=O)cnc1OC` (stereo not given) yielded a Ki of 100 to 490 nM.

With `COc1cc(-c2ccc3c(n2)CN(c2cnn(CCC#N)c2)C3=O)cnc1OC`, the Ki was less than 100 nM.

`COc1ncc(-c2cc(C)c3c(n2)CN(c2cnn(CC#N)c2)C3=O)cn1` registered a Ki of less than 100 nM.

The molecule `COc1cncc(-c2cc(C)c3c(n2)[C@@H](C)N(c2ccn(CC(C)(C)O)n2)C3=O)c1` showed a Ki of less than 100 nM.

The molecule `COc1cncc(-c2cc(C)c3c(n2)[C@@H](C)N(c2cnn(CC(F)(F)F)c2)C3=O)c1` had an inhibition constant (Ki) of less than 100 nM.

In turn, `COc1cc(-c2ccc3c(n2)CN(c2ccnc(N(C)CCCN(C)C)c2)C3=O)cnc1OC` yielded a Ki of 100 to 490 nM.

Consider `COc1cncc(-c2cc(C)c3c(n2)C(C)N(c2ccn([C@@H]4CCOC4)n2)C3=O)c1` (stereo not given in full), for which the Ki is less than 100 nM.

Take `COc1cncc(-c2cc(C)c3c(n2)C2(CC(O)C2)N(c2cnn(CC(F)(F)F)c2)C3=O)c1` (stereo not given): the Ki was less than 100 nM.

`CCOc1ncc(-c2cc(C)c3c(n2)C(CC)N(c2cnn(CC(F)(F)F)c2)C3=O)cc1OC` (stereo not given) had a Ki of less than 100 nM.

Regarding `COC(=O)CC1c2nc(-c3cnc(OC)c(OC)c3)ccc2C(=O)N1c1cnn(CC(F)(F)F)c1` (stereo not given), the Ki was less than 100 nM.

As for `COc1cc(OC)cc(-c2cc(C)c3c(n2)CN(c2cnn(C(C)(C)C#N)c2)C3=O)c1`, the Ki was less than 100 nM.

For the molecule `Cc1cc(-c2cncc(OCC(F)(F)F)c2)cc2c1C(=O)N(c1cnn(CC(F)(F)F)c1)C2`, the Ki is less than 100 nM.

`COc1cc(-c2ccc3c(n2)C(C)N(c2ccn(C[C@@H](C)O)n2)C3=O)cnc1OC` (stereo not given in full) showed a Ki of less than 100 nM.

In turn, `CCn1cnc(N2Cc3cc(-c4cnc(OC)c(OC)c4)ccc3C2=O)n1` showed a Ki of less than 100 nM.

As for `Cc1cc(-c2cncc(NS(=O)(=O)N(C)C)c2)nc2c1C(=O)N(c1cnn(CC(F)(F)F)c1)C2(C)C`, the Ki was less than 100 nM.

Molecule `C=C1c2nc(-c3cnc(OC)c(OC)c3)ccc2C(=O)N1c1cnn(CC#N)c1` yielded a Ki of less than 100 nM.
